Where a name gives a salt, the structure may show the parent alone.
What was measured:
human PI3Kα protein = target: T1, human PI3Kα protein (Homo sapiens, UniProt P42336); test: PI3Kα enzyme assay (ADP-Glo); format: biochemical; settings: read-out: PI3Kα enzyme inhibitory activity
T1 construct: purchased Carna Biosciences, Inc; host or cells: baculovirus expression system
In short: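 Biotinylated human PI3Kα (baculovirus-expressed, 4.5 nmol/L) pre-incubated 15 min with compound in Tris-HCl pH 7.5, MgCl2, BSA; reaction 60 min at 25° C with 50 μmol/L PIP2 and 100 μmol/L ATP final. ADP quantified by ADP-Glo luminescence; IC50 calculated.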

[1] = target: T2, GST fusion human ERK2 protein (Homo sapiens, UniProt P28482); test: ERK2 enzyme assay (2); format: biochemical; settings: ERK2 enzyme assay (2); read-out: ERK2 enzyme inhibitory activity (2)
T2 construct: purchased Carna Biosciences, Inc; host or cells: E. coli expression system
T2 sequence (P28482 whole entry, the tested form may be a part): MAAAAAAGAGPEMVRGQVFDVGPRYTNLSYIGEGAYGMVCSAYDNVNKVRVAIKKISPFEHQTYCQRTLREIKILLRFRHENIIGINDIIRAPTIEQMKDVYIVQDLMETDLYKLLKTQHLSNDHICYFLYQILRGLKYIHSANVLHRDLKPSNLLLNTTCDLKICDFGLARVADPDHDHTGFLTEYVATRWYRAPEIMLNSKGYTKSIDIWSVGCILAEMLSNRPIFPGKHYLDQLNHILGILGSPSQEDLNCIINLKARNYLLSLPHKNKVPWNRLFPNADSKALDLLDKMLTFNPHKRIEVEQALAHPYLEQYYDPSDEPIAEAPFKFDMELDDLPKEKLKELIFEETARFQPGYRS
In short: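 IC50 values come from mobility-shift measurement of phosphorylated versus unphosphorylated 5-FAM peptide substrate after EDTA quench. Beforehand, compound and 1.25 nmol/L E. coli-expressed GST–human ERK2 stood 15 min at room temperature (pH 7.5), then 1 mmol/L ATP and 4.25 μmol/L substrate (final) were added for 120 min at 25 °C.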

T1 sequence (P42336 whole entry): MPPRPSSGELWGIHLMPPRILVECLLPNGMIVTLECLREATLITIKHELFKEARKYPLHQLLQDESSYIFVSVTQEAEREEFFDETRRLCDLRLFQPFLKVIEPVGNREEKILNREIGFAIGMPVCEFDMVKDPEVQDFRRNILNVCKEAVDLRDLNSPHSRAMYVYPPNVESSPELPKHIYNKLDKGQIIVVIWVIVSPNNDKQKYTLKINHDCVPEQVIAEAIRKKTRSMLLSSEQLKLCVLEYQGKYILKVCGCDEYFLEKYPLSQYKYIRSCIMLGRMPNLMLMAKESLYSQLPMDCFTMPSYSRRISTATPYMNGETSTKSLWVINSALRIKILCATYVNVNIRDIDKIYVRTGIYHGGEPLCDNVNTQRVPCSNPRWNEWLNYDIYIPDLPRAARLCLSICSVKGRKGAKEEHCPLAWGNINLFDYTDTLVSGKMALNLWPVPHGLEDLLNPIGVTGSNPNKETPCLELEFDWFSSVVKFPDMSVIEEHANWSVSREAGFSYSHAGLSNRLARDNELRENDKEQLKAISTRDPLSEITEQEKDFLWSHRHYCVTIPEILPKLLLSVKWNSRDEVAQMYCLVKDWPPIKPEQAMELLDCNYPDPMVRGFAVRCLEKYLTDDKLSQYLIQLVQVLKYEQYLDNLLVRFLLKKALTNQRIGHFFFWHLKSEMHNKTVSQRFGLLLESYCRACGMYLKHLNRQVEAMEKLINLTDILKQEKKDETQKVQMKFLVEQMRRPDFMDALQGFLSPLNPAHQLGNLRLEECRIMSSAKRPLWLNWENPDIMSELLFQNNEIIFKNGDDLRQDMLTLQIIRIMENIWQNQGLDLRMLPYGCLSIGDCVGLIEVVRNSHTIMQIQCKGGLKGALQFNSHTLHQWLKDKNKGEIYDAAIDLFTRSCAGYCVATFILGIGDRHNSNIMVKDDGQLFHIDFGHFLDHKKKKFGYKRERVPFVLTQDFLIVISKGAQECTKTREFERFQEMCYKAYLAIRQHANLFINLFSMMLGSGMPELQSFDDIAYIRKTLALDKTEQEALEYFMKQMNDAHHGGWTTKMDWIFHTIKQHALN
T1 sequence (P27986 whole entry partner): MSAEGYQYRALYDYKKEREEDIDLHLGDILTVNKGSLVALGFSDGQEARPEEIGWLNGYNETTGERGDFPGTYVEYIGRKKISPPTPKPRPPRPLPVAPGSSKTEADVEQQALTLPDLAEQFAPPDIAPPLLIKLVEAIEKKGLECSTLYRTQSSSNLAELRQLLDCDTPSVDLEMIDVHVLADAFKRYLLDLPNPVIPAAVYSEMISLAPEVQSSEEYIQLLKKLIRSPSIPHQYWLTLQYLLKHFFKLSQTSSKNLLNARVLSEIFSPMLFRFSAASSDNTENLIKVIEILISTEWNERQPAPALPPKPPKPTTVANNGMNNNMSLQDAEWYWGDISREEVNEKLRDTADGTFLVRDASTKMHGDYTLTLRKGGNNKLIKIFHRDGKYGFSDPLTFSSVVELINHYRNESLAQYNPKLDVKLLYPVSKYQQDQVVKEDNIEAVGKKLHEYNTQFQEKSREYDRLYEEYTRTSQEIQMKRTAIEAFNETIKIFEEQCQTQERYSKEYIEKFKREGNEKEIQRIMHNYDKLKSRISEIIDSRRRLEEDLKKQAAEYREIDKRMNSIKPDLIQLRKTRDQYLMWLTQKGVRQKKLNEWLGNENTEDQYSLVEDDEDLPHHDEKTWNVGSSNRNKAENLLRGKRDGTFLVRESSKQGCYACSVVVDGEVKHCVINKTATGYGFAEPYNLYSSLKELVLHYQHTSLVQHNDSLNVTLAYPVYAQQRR

IC50 (human PI3Kα protein) [µM]	IC50 [1] [µM]	SMILES
1 to 10	1 to 10	CC(C)c1cnnc(Nc2ccc3ncc(C(=O)Nc4ccncc4)cc3n2)c1 [Example 0669]
< 1	< 1	CC(C)c1cnnc(Nc2ccc3ncc(-c4cnn(CCCN5CC(C(N)=O)C5)c4)cc3n2)c1 [Example 0670]
< 1	< 1	CC(C)c1cnnc(Nc2ccc3ncc(-c4cnn(CCCN(C)CC(N)=O)c4)cc3n2)c1 [Example 0671]
< 1	< 1	CC(C)c1cnnc(Nc2ccc3ncc(-c4cnn(CCCN5CCCCC5C(F)(F)F)c4)cc3n2)c1 (centres unmarked) [Example 0672]
< 1	< 1	CC(C)c1cnnc(Nc2ccc3ncc(-c4cnn(CCCN5CCC(C(F)(F)F)CC5)c4)cc3n2)c1 [Example 0673]
< 1	< 1	CC1CN(CCCn2cc(-c3cnc4ccc(Nc5cc(C(C)C)cnn5)nc4c3)cn2)C(C)CO1 (centres unmarked) [Example 0674]
< 1	< 1	CCOC1CN(CCCn2cc(-c3cnc4ccc(Nc5cc(C(C)C)cnn5)nc4c3)cn2)C1 [Example 0676, N-(5-isopropylpyridazin-3-yl)-7-(1-(3-(3-ethoxyazetidin-1-yl)propyl)-1H-pyrazol-4-yl)-1,5-naphthyridine-2-amine]
< 1	< 1	CC(C)c1cnnc(Nc2ccc3ncc(-c4cnn(CCCN5CC(OCc6ccccc6)C5)c4)cc3n2)c1 [Example 0680]
< 1	< 1	CC(C)c1cnnc(Nc2ccc3ncc(-c4cnn(CCCN5CC(OC(F)F)C5)c4)cc3n2)c1 [Example 0681]
< 1	< 1	CNc1nn(C)cc1-c1cnc2ccc(Nc3cc(C(C)C)cnn3)nc2c1 [Example 0683, N-(5-isopropylpyridazin-3-yl)-7-(1-methyl-3-(methylamino)-1H-pyrazol-4-yl)-1,5-naphthyridine-2-amine hydrochloride]
< 1	< 1	CCC1CN(CCCn2cc(-c3cnc4ccc(Nc5cc(C(C)C)cnn5)nc4c3)cn2)CCO1 (centres unmarked) [Example 0684]
< 1	< 1	CC(C)c1cnnc(Nc2ccc3ncc(-c4cnn(CCCN5CC(C(=O)N6CCOCC6)C5)c4)cc3n2)c1 [Example 0689]
< 1	< 1	CC(=O)Nc1nn(C)cc1-c1cnc2ccc(Nc3cc(C(C)C)cnn3)nc2c1 [Example 0690, N-(4-(6-((5-isopropylpyridazin-3-yl)amino)-1,5-naphthyridin-3-yl)-1-methyl-1H-pyrazol-3-yl)acetamide]
< 1	< 1	CC(C)c1cnnc(Nc2ccc3ncc(-c4cnn(CCCN5CC(F)(F)C5)c4)cc3n2)c1 [Example 0692]
< 1	< 1	CC(C)c1cnnc(Nc2ccc3ncc(-c4cnn(CCCN5CC(NC(=O)OC(C)(C)C)C5)c4)cc3n2)c1 [Example 0693]
< 1	< 1	CC(C)c1cnnc(Nc2ccc3ncc(-c4cnn(CCCN5CC(NC(=O)C(F)(F)F)C5)c4)cc3n2)c1 [Example 0696]
1 to 10	< 1	Cc1cn(-c2cnc3ccc(Nc4cc(C(C)C)cnn4)nc3c2)c(C)n1 [Example 0698, 7-(2,4-dimethyl-1H-imidazol-1-yl)-N-(5-isopropylpyridazin-3-yl)-1,5-naphthyridine-2-amine]

IC50 (human PI3Kα protein) [µM]	IC50 [1] [µM]	SMILES
< 1	< 1	CC(C)c1cnnc(Nc2ccc3ncc(-c4cnn(CCCN5CC(OCC(F)(F)F)C5)c4)cc3n2)c1 [Example 0699]
< 1	< 1	CC(C)c1cnnc(Nc2ccc3ncc(-c4cnn(CCCN(C)CC(F)(F)F)c4)cc3n2)c1 [Example 0700, N-(5-isopropylpyridazin-3-yl)-7-(1-(3-(methyl (2,2,2-trifluoroethyl)amino)propyl)-1H-pyrazol-4-yl)-1,5-naphthyridine-2-amine]
< 1	< 1	Cc1ccc(S(=O)(=O)NC2CN(CCCn3cc(-c4cnc5ccc(Nc6cc(C(C)C)cnn6)nc5c4)cn3)C2)cc1 [Example 0701]
< 1	< 1	CC(C)c1cnnc(Nc2ccc3ncc(-c4cnn(CCCN5CC(O)(CCO)C5)c4)cc3n2)c1 [Example 0702]
< 1	< 1	CC(C)c1cnnc(Nc2ccc3ncc(-c4cnn(Cc5ccccc5[N+](=O)[O-])c4)cc3n2)c1 [Example 0703, N-(5-isopropylpyridazin-3-yl)-7-(1-(2-nitrobenzyl)-1H-pyrazol-4-yl)-1,5-naphthyridine-2-amine]
< 1	< 1	CC(C)c1cnnc(Nc2ccc3ncc(-c4cnn(CCCN5CC6(CCO6)C5)c4)cc3n2)c1 [Example 0704, 7-(1-(3-(1-Oxa-6-azaspiro[3.3]heptan-6-yl)propyl)-1H-pyrazol-4-yl)-N-(5-isopropylpyridazin-3-yl)-1,5-naphthyridine-2-amine]
< 1	< 1	CC(C)c1cnnc(Nc2ccc3ncc(-c4cnn(Cc5ccccc5N)c4)cc3n2)c1 [Example 0705, 7-(1-(2-aminobenzyl)-1H-pyrazol-4-yl)-N-(5-isopropylpyridazin-3-yl)-1,5-naphthyridine-2-amine]
< 1	< 1	CCCOC1CN(CCCn2cc(-c3cnc4ccc(Nc5cc(C(C)C)cnn5)nc4c3)cn2)C1 [Example 0706]
< 1	< 1	CCCCOC1CN(CCCn2cc(-c3cnc4ccc(Nc5cc(C(C)C)cnn5)nc4c3)cn2)C1 [Example 0707]
< 1	< 1	CC(C)COC1CN(CCCn2cc(-c3cnc4ccc(Nc5cc(C(C)C)cnn5)nc4c3)cn2)C1 [Example 0708]
< 1	< 1	CC(C)c1cnnc(Nc2ccc3ncc(-c4cnn(CCCN5CC(OCC6CC6)C5)c4)cc3n2)c1 [Example 0709]
< 1	< 1	CC(C)OC1CN(CCCn2cc(-c3cnc4ccc(Nc5cc(C(C)C)cnn5)nc4c3)cn2)C1 [Example 0710, 7-(1-(3-(3-Isopropoxyazetidin-1-yl)propyl)-1H-pyrazol-4-yl)-N-(5-isopropylpyridazin-3-yl)-1,5-naphthyridine-2-amine]
< 1	< 1	CC(C)c1cnnc(Nc2ccc3ncc(-c4cnn(Cc5cccc([N+](=O)[O-])c5)c4)cc3n2)c1 [Example 0711]
< 1	< 1	CC(C)c1cnnc(Nc2ccc3ncc(-c4cnn(CCCN5CC(OCCF)C5)c4)cc3n2)c1 [Example 0713, 7-(1-(3-(3-(2-Fluoroethoxy)azetidin-1-yl)propyl)-1H-pyrazol-4-yl)-N-(5-isopropylpyridazin-3-yl)-1,5-naphthyridine-2-amine]
< 1	< 1	CC(C)c1cnnc(Nc2ccc3ncc(-c4cnn(CCCN5CC(OCC(F)F)C5)c4)cc3n2)c1 [Example 0714]
< 1	< 1	CC(C)c1cnnc(Nc2ccc3ncc(-c4cnn(CCCN5CC(Oc6ccccc6)C5)c4)cc3n2)c1 [Example 0715, N-(5-isopropylpyridazin-3-yl)-7-(1-(3-(3-phenoxyazetidin-1-yl)propyl)-1H-pyrazol-4-yl)-1,5-naphthyridine-2-amine]
< 1	< 1	CC(C)c1cnnc(Nc2ccc3ncc(-c4cnn(Cc5ccc([N+](=O)[O-])cc5)c4)cc3n2)c1 [Example 0716]

Source: patent publication US9783536B2, “Nitrogen-containing heterocyclic compound or salt thereof” (FUJIFILM Corporation, priority 2013, dated 2017)
